According to US7829110B2, “Surgical implant comprising an anabolic and a corticosteroid” (Ethicon, Inc., priority 2003, dated 2010):

Test system: fibroblast (human, dermal)
Assay: fibroblast contraction (human, dermal)
Assay type: cell-based
Details: human dermal fibroblasts; even at low doses
Source text: Cortisone prevents fibroblast contraction (human, dermal) even at low doses (below 10^−6 M)

C[C@]12CCC(=O)C=C1CC[C@@H]1[C@@H]2C(=O)C[C@@]2(C)[C@H]1CC[C@]2(O)C(=O)CO [Cortisone, cortisone]
dose preventing fibroblast contraction: below 10^−6 M
